According to patent US7919459B2, “Use of C5a receptor antagonist in the treatment of fibrosis” (Promics Pty Limited, priority 2002, dated 2011):
Where “and” joins values, the source holds several entries; their conditions need not be identical. Equal entries are not always repeated.

What was measured:
[1] = test system: bleomycin-instilled male Wistar rats; assay: Hydroxyproline assay of lung, bleomycin-induced pulmonary fibrosis; type: in vivo, rat; details: 18 days after bleomycin instillation
Protocol: (§1) The data was analysed using the program “Sion Image”.
Hydroxyproline assay was performed by the method of Christensen et al 1 (2000). Lung tissue was excised, trimmed free of surrounding conducting airways, and homogenized in 2 mls saline. A 1 ml aliquot of lung homogenate was hydrolysed in 6N HCl (0.5 ml of homogenate and 0.5 ml of 12N HCl) at 110° C. for 12 hours; 50 μl aliquots were added to 1 ml of 14% chloramine T, 10% n-propanol, and 0.5M sodium acetate, pH 6.0. After 20 min at 22° C., 1 ml of Ehrlich's solution (1M p-dimethylaminobenzaldehyde in 70% n-propanol and 20% perchloric acid) was added and allowed to incubate at 65° C. for 15 min. Absorbance was measured at 550 nm, and the amount of hydroxyproline was determined against a standard curve generated with the use of known concentrations of reagent-grade hydroxyproline.

[2] = test system: bleomycin-instilled male Wistar rats; assay: Picro Sirius Red (PR) staining for collagen in lung, bleomycin-induced pulmonary fibrosis; type: in vivo, rat; details: 18 days after bleomycin, individual rats, n = 3-4
Protocol: as §1

[3] = test system: bleomycin-instilled male Wistar rats; assay: Bleomycin-induced pulmonary fibrosis in rats: lung and body weight, histology, collagen deposition; details: for collagen deposition in lung: acute lung inflammation; for Body weight / Left lung weight / Ratio (lung weight to body weight): 7-9 days after intra-tracheal bleomycin, PMX53 10 mg/kg p.o. daily
Protocol: Male Wistar rats, 6 weeks of age, were used. The rats were divided into 5 groups:
Group 1: bleomycin instillation only (n=9)
Group 2: saline instillation only (n=3)
Group 5: Untreated rats maintained in the same environment as the other groups (n=3).
Drug-treated rats were given drug for 3 days before bleomycin administration.
One intra-tracheal instillation of bleomycin at a dose of 0.5 mg/100 g (0.7 U/100 g) in 200 μl of saline was performed on Day 1, as described by Taylor et al., (2002). Rats were anaesthetized by inhalation of 5% or less halothane via a vaporizer. After a local spray of Xylocalne to prevent airway spasm, the rats were intubated and a slow injection of bleomycin or sline control was completed. The rats were then rotated gently for about 1-2 minutes to allow the solution to diffuse evenly into both lungs (Christensen et al 2000). Rats were kept in the fume cupboard until totally recovered, and then monitored for up to 18 days. Body weight, food and water intake, and respiration were monitored daily.
Respiration was elevated as follows: Score 0, normal respiration; Score 1, increased rate of breathing; and Score 2, mouth open respiration. Rats were euthanased before the end of the experimental period, if they consistently lost more than 10% bodyweight for 48 hours, had Score 2 respiration or had Score 1 respiration for 48 hours.
At the end of this period the rats were killed by exsanguination under anaesthesia, so that the lungs were clear of blood. For each rat, the left lung was immediately frozen in liquid nitrogen and stored at −20° C. for quantitative collagen analysis using hydroxyproline assay. The right lung was fully inflated and fixed with 10% formulated formalin by airway gravity fixation at a pressure of 30 cm water for 1 minute. Haematoxylin and eosin (H&E) and Picro Sirius Red (PR) staining for collagen were performed to assess collagen deposition in the lung. For quantitation of collagen stained with PR, polarized light images were converted to grey scale, and the total number of white pixels (specific for collagen) per image was determined as a percentage of the total pixel area. The procedure was applied to a total of four fields in the alveolar area and two fields in the peribronchial area and blood vessels per sample (Wang et al, 2000). The largest lobe of the right lung (from 4 lobes) in each rat was chosen. The data was analysed using the program “Sion Image”.
Data were compiled as the means±SE in the study. Tests of significance were obtained by ANOVA followed by Student-Newman-Keuls post analysis.

[4] = test system: streptozotocin-induced diabetes in rats; details: streptozotocin-induced diabetes in rats (Miric G, et al., 2001); cited from earlier work
[5] = test system: L-NAME-treated male Wistar rats; assay: Echocardiographic analysis of cardiac function, L-NAME rats; type: in vivo, rat
Protocol: After 4 weeks of L-NAME treatment, heart function was determined in vivo by echocardiography and in vitro using the isolated Langendorff heart preparation described below. Collagen deposition was measured by image analysis using laser confocal microscopy of picrosirius red-stained cardiac slices, as described below.
Cardiac function was estimated in vivo using echocardiography, using conventional methods.

[6] = test system: L-NAME-treated male Wistar rats; assay: Isolated Langendorff heart preparation (diastolic stiffness), L-NAME rats; type: in vivo, rat
Protocol: The Langendorff isolated heart preparation was used to determine the diastolic stiffness of the left ventricles ex vivo. […] To assess myocardial stiffness in isolated Langendorff hearts, stress (σ, dyne/cm2) and tangent elastic modulus (E, dyne/cm2) for the […] equator of the left ventricle were calculated by assuming spherical geometry of the ventricle and considering the […] equatorial region as representative of the remaining myocardium: […] Myocardial diastolic stiffness is calculated as the diastolic stiffness constant (k, dimensionless), the slope of the linear relation between E and σ (Mirsky and […], 1973). To assess contractile function, maximal +dP/dt was calculated at a diastolic pressure of 5 mmHg. […] The negative log EC50 of the increase in either force of contraction in mN or rate of contraction in beats/min was determined from the concentration giving half-maximal responses in individual concentration-response curves. Renal function results were corrected for kidney wet weight measured at the end of the experiment.

[7] = test system: L-NAME-treated male Wistar rats; assay: L-NAME-induced hypertension/cardiac fibrosis in rats: intake, growth, tail-cuff blood pressure, organ weights; type: in vivo, rat
Protocol: Male Wistar rats (8 weeks old) were obtained from the Central Animal Breeding House of The University of Queensland.
This agent was administered at a dosage of 1 mg/kg/day orally for 4 days before rats were additionally treated with nitro-L-arginine methyl ester (L-NAME) for 4 weeks, i.e. a total duration of treatment of antagonist of 32 days. L-NAME administration produces hypertension and cardiac remodelling as a result of inhibition of the production of nitric oxide (NO).
L-NAME was administered at a concentration of 400 mg/l in the drinking water for 4 weeks to give a mean daily intake of 18.7±0.4 mg L-NAME (41.4±0.8 mg/kg mean body weight). Body weight and food and water intakes were measured daily.
Systolic blood pressure was measured in selected unanaesthetised rats, using a tail-cuff method.

[8] = test system: L-NAME-treated male Wistar rats; assay: Collagen distribution and inflammatory cells in heart and kidney sections (picrosirius red image analysis), L-NAME rats; type: in vivo, rat
Protocol: Collagen deposition was measured by image analysis using laser confocal microscopy of picrosirius red-stained cardiac slices, as described below. […] The stained sections were analyzed with an Image Pro plus analysis program using an Olympus BH2 microscope, with results expressed as a percentage of red area in each screen. At least 4 areas were examine in each heart.

[9] = L-NAME rats, echocardiographic M-mode
[10] = L-NAME rats + PMX53 1 mg/kg/day orally

## CC(=O)N[C@@H](Cc1ccccc1)C(=O)N[C@H]1CCCNC(=O)[C@H](CCCNC(=N)N)NC(=O)[C@H](Cc2c[nH]c3ccccc23)NC(=O)[C@@H](CC2CCCCC2)NC(=O)[C@@H]2CCCN2C1=O [PMX53, AcF-[OPdChaWR]]
[1]
  hydroxyproline levels in the rat lungs: significantly reduced
[2]; listed as Bleo + PMX53
  PR staining: 1.43 % of the total pixel area and 0.06 % of the total pixel area and 0.01 % of the total pixel area and 0.77 % of the total pixel area
[3]; 7-9 days after bleomycin, H&E, n=4 per group
  lung histology (patchy lesions), treated versus non-treated: no significant difference
[3]; 7-9 days after bleomycin
  collagen deposition in lung: no significant difference
[3]; acute stage
  toxic lung inflammation induced by bleomycin: failure

## Cc1ccc(=O)n(-c2ccccc2)c1 [pirfenidone, 5-methyl-1-phenyl-2-(1H)-pyridone]
[4]
  cardiac fibrosis and increase in cardiac stiffness: can prevent and partially reverse

## Bleomycin [reference compound]
[1]
  hydroxyproline levels in the rat lungs: significantly increased
[2]
  PR staining: 0.01 % of the total pixel area and 0.21 % of the total pixel area and 0.78 % of the total pixel area and 1.73 % of the total pixel area
[3]
  Body weight: 226 + 8.083 g
  Left lung weight: 1.004 ± 0.04 g
  Ratio (lung weight to body weight): 4.47 ± 0.46 ×10^−3
[3]; 18 days after bleomycin instillation
  lung/body weight ratio: did not show a significant difference
[3]; 7-9 days after bleomycin
  collagen deposition in lung: significant increase

## AcF-[OPdChaWR] [PMX53]
[5]; L-NAME rats
  E/A ratio (early to atrial mitral valve inflow rates): significantly normalised
  cardiac output: significantly normalised
  diastolic volume: significantly normalised
[5]; [9]
  left ventricular internal diameter in diastole: normalised
  left ventricular wall thickness in diastole: normalised
[5]; control rats
  any parameter measured by echocardiographic analysis: did not significantly alter
[6]; isolated heart
  developed pressure and contractility: without altering
[6]; left ventricle ex vivo
  diastolic stiffness constant: prevented
[3]
  Body weight: 228 + 7.583 g
  Left lung weight: 0.974 ± 0.132 g
  Ratio (lung weight to body weight): 4.25 ± 1.07 ×10^−3
[7]; L-NAME + antagonist versus L-NAME only
  increase in systolic blood pressure of L-NAME rats: 16 mmHg
[7]; L-NAME rats
  left ventricular wet weight: increased
[7]; control rats
  blood pressure: non-significant increase
[7]; tail-cuff, unanaesthetised rats, day 32, L-NAME rats with or without PMX53 1 mg/kg/day orally
  systolic blood pressure: 176±3 mmHg
[8]; L-NAME rats
  glomerular collagen concentrations in the kidneys: normalized
[8]; [10]
  collagen deposition restricted to % of L-NAME only, kidney interstitium: 30%
  collagen deposition restricted to % of L-NAME only, right ventricle interstitial: 44%
  collagen deposition restricted to % of L-NAME only, right ventricle perivascular: 37%
  collagen increase as % of the increase observed in rats treated with L-NAME only, left ventricular interstitial: 23%
  collagen increase as % of the increase observed in rats treated with L-NAME only, left ventricular perivascular: 43%
[8]; following L-NAME treatment
  inflammatory cell infiltration into left or right ventricles: totally prevented

## CC(=O)S[C@@H]1CC2=CC(=O)CC[C@]2(C)[C@H]2CC[C@@]3(C)[C@@H](CC[C@@]34CCC(=O)O4)[C@H]12 [spironolactone]
[4]
  cardiac fibrosis and increase in cardiac stiffness: can prevent and partially reverse
